Source: patent US12311056B2, “Composition and method for treatment of neuropsychiatric disorders” (Duke University, priority 2015, dated 2025)

Columns and labels:
histamine H1 receptors = histamine H1 receptors (Homo sapiens, UniProt P35367); conditions: cited from earlier work
adrenergic α2 receptors = conditions: cited from earlier work
5-HT3 receptors = conditions: cited from earlier work
5-HT2C receptors = target: T1, 5-HT2C receptors (Homo sapiens, UniProt P28335); conditions: cited from earlier work
T1 sequence (P28335 33-458): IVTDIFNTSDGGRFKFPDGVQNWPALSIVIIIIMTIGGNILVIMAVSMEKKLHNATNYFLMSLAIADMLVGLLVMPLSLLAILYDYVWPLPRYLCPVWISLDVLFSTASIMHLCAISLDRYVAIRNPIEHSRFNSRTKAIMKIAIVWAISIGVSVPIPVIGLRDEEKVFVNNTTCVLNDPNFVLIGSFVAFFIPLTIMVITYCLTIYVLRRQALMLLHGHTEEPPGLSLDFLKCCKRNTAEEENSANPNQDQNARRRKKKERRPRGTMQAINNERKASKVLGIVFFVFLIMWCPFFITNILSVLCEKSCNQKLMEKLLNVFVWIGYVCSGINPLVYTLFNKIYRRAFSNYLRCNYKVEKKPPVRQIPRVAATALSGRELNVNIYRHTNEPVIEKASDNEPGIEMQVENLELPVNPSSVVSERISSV

5-HT2A receptors = 5-HT2A receptors (Homo sapiens, UniProt P28223); conditions: cited from earlier work
Sequence of 5-HT2A receptors (P28223 whole entry): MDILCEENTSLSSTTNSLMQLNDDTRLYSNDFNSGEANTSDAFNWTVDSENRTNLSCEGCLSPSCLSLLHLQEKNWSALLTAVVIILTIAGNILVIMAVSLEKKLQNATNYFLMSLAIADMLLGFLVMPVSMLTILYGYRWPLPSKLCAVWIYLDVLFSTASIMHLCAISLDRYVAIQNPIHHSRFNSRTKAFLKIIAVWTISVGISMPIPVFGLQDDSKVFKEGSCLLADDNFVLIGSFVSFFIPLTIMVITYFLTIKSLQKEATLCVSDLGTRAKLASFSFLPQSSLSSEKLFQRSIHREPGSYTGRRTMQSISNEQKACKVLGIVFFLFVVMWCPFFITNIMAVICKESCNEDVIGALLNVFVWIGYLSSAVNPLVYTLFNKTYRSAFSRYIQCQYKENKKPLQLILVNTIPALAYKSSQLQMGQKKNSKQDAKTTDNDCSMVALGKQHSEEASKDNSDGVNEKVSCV

5-HT1A receptors = target: T2, 5-HT1A receptors (Homo sapiens, UniProt P08908); conditions: cited from earlier work
T2 sequence (P08908 1-422): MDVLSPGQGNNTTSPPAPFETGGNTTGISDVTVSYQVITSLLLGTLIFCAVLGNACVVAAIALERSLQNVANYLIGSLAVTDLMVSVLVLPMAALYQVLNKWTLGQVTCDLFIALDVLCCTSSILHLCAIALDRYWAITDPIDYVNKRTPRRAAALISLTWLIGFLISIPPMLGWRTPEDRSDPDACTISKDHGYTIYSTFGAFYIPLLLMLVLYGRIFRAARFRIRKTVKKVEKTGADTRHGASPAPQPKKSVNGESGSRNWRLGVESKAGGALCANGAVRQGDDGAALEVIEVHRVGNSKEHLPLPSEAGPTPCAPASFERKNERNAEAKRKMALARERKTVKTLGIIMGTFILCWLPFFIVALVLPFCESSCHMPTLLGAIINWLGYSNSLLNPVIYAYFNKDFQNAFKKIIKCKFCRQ

rat animal models of LID = assay: Levodopa-induced abnormal involuntary movement (LIAIM) in 6-OHDA-lesioned rat models of LID; assay type: in vivo; conditions: 2 weeks s.c. treatment; challenge with 25 mg/kg levodopa two days after last treatment; compared to L_SS
Method: First, the dopaminergic neurotoxin 6-hydroxydopamine (6-OHDA) was injected into the right medial forebrain bundle of rats to induce unilateral lesions of the nigrostriatal DA pathway. Starting 3 weeks after 6-OHDA lesion, animals were treated twice daily with levodopa methyl ester (25 mg/kg, i.p., bid immediately preceded by 6.5 mg/kg, i.p. benserazide) for 3 weeks to establish LIAIM. Three hour LIAIM scores were quantified twice a week during the levodopa treatment using standard LIAIM rating scales.
Following LIAIM establishment, animals with combined limb, axial and orolingual LIAIM severity scores>25 were treated with one of the 3 treatment regimens for 2 weeks: (1) pergolide (0.1 mg/kg) followed 3.5 hours later by the 5-HT2A/2C antagonist ketanserin (1 mg/kg) [L_PK group]; (2) pergolide+saline 3.5 hours later [L_PS Group]; and (3) DMSO (1% in saline)+saline 3.5 hours later [L_SS]. All injections were given subcutaneously.
Two days after the last L_PK, L_PS or L-SS treatment, all animals were challenged with 25 mg/kg levodopa and their LIAIM scores were again quantified.

[1] = PK analysis of [MPh-IR+Ond-PR2] in the Phase 2A study (24-hour blood PK samples, Day 1 and Day 14)
Text: Ond-PR2 is a bead formulation prepared from ondansetron as the active pharmaceutical ingredient (API). MPh-IR is an immediate-release generic formulation of methylphenidate. [MPh-IR+Ond-PR2] is a single encapsulated dosage form consisting of MPh-IR and Ond-PR2 as Components 1 and 2, respectively. Following in vitro dissolution testing and PK and safety determinations in normal healthy volunteers (Phase 1 trial), we conducted a proof-of-concept, randomized, double-blind, placebo-controlled Phase 2A safety/efficacy clinical trial. A total of 48 patients residing in a residential program and meeting the DSM-4 criteria for primary psychostimulant abuse were screened, and 30 qualifying subjects were randomized into either [MPh-IR+Ond-PR2] or placebo treatment group.
Single capsules containing either [MPh-IR+Ond-PR2] or dextrose (placebo) were administered once a day for 14 days. Subjects also underwent single fMRI-based assessments 1-7 days before the first study dosing (pre-treatment) and again between Day 3 and 7 days after the last dosing (i.e., post-treatment assessment was performed after complete drug washout). Outcome measures for group comparisons were behavioral rating scales and blood-oxygenation-level-dependent (BOLD) functional imaging results under well-established resting-state, cue-reactivity and Go/noGO task paradigms.
On Day 1 and Day 14, 24-four-hour blood PK samples were collected following single oral administrations of a [MPh-IR+Ond-PR2] capsule to: (1) estimate the PK parameters of the two Components (i.e., MPh-IR and Ond-PR2] by quantifying serum methylphenidate and ondansetron concentrations; and (2) determine whether or not any of these parameters change after single daily administrations for 14 days. Descriptive statistics for blood methylphenidate (MPh-IR) and ondansetron (Ond-PR2) concentrations at each time point were summarized as the mean, standard deviation and coefficient of variation. Estimation and statistical analyses of PK parameters were performed with SAS 9.3, and BABE Solution.

CYP2D6 = CYP2D6 (Homo sapiens, UniProt P10635); conditions: cited from earlier work
Sequence of CYP2D6 (P10635 whole entry): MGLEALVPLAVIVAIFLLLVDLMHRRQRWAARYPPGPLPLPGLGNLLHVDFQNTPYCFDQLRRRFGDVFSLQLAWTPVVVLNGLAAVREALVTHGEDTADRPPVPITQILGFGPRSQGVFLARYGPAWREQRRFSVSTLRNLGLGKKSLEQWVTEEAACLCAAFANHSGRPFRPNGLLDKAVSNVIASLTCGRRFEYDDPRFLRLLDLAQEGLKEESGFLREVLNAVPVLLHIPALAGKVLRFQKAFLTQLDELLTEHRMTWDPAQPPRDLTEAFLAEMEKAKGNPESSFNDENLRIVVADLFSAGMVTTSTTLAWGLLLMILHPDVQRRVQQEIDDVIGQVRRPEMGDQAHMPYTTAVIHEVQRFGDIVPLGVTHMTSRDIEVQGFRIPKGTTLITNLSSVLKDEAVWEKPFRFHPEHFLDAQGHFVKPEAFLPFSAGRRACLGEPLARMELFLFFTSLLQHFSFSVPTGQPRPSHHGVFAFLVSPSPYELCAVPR

[2] = cited from earlier work
[3] = vs R(−) enantiomer of mirtazapine

Sequence of histamine H1 receptors (P35367 whole entry): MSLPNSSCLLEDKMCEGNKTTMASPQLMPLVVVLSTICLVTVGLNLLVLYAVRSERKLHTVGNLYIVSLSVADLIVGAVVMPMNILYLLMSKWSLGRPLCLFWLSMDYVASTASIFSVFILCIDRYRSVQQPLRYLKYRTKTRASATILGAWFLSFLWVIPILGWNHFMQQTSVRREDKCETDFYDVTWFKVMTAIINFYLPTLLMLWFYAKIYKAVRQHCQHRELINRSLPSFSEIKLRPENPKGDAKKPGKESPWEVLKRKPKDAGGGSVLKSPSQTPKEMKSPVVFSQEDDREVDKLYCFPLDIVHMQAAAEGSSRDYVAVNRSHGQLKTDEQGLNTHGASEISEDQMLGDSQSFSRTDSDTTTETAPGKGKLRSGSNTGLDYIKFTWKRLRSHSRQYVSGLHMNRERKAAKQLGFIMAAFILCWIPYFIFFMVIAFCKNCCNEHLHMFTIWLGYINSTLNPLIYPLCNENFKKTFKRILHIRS

CN1CCN2c3ncccc3Cc3ccccc3C2C1 (racemic) [Mirtazapine, 1,2,3,4,10,14b-hexahydro-2-methylpyrazino[2,1-a]pyrido[2,3-c]benzazepine]
Affinity for histamine H1 receptors (histamine H1 receptors): high affinities | Affinity for adrenergic α2 receptors (adrenergic α2 receptors): high affinities | Affinity for 5-HT3 receptors (5-HT3 receptors): high affinities | Affinity to 5-HT2C receptors (5-HT2C receptors): high affinities | Affinity to 5-HT2A receptors (5-HT2A receptors): high affinities | Affinity to 5-HT1A receptors (5-HT1A receptors): minimal affinity

CCCN1C[C@H](CSC)C[C@@H]2c3cccc4[nH]cc(c34)C[C@H]21 [L_P/S, pergolide]
Total LIAIM scores (ratios between post- and pre-reversal treatment scores) (rat animal models of LID): No differences

COC(=O)C(c1ccccc1)C1CCCCN1 (stereo not drawn) [Methylphenidate, methylphenidate]
Cmin (minimum blood concentration before the next administration) ([1]; Day 1, mean): 0 ng | Kel (elimination rate constant) ([1]; Day 1, mean): 0.2 h − 1 | AUC (0-24) ([1]; Day 14, mean): 21.5 ng·h | Cmin (minimum blood concentration before the next administration) ([1]; Day 14, mean): 0 ng | Half life(t1/2) ([1]; Day 14, mean): 3.1 h | Kel (elimination rate constant) ([1]; Day 14, mean): 0.2 h − 1 | AUC(0-t) ([1]; human, in vivo): 21.5 ng·h/mL | Cmax ([1]; human, in vivo): 3.4 ng/mL | half-life ([1]; human, in vivo): 3.2 h | AUC(0-inf) ([1]; human, in vivo, AUC (0-inf), Day 1, mean): 21.6 ng·h/mL | AUC(0-inf) ([1]; human, in vivo, AUC (0-inf), Day 14, mean): 23.4 ng·h/mL | Tmax ([1]; human, in vivo, Tmax, Day 1, mean): 1.9 h | Tmax ([1]; human, in vivo, Tmax, Day 14, mean): 1.7 h | Cmax ([1]; human, in vivo, po): 4 ng/mL | Change in Cmax, Cmin, Tmax, t½, AUC (0-24), AUC (0-inf.) and Kel between Day 1 and Day 14 ([1]; once-daily [MPh-IR+Ond-PR2] for 14 days): No significant changes

Cc1nccn1CC1CCc2c(c3ccccc3n2C)C1=O (stereo not drawn) [Ondansetron, ondansetron]
AUC (0-24) ([1]; human, in vivo): 186.4 ng·h | AUC(0-inf) ([1]; human, in vivo): 226.4 ng·h | Change in Cmax, Cmin, Tmax, t½, AUC (0-24), AUC (0-inf.) and Kel between Day 1 and Day 14 ([1]; human, in vivo): No significant changes | Cmax ([1]; human, in vivo): 12.6 ng/mL | Half life(t1/2) ([1]; human, in vivo): 7.2 h | Kel (elimination rate constant) ([1]; human, in vivo): 0.1 h − 1 | Tmax ([1]; human, in vivo): 5.8 h | AUC(0-t) ([1]; human, in vivo, AUC (0-24)): 136 ng·h/mL | AUC(0-inf) ([1]; human, in vivo, AUC (0-inf)): 179 ng·h/mL | half-life ([1]; human, in vivo, Half life(t1/2)): 6.9 h | Tmax ([1]; human, in vivo, Tmax): 6.3 h | Cmax ([1]; human, in vivo, po): 11.2 ng/mL

CN1CCN2c3ncccc3Cc3ccccc3[C@H]2C1 [esmirtazapine]
Affinity for α2 adrenergic receptors in comparison with the R(−) enantiomer (adrenergic α2 receptors; [3]): higher affinity | Affinity for 5-HT2C receptors in comparison with the R(−) enantiomer (5-HT2C receptors; [3]): higher affinity | Metabolising enzyme (CYP2D6): predominantly metabolized by CYP2D6 | Clearance in poor metabolizers compared to extensive metabolizers ([2]; CYP2D6 phenotype): twice as low | Absorption in comparison with the R(−) enantiomer ([2]; enantioselective transport process in the gut wall): may be absorbed faster (but not more extensively)
